Source: patent publication US6440971B1, “Binuclear complex” (A+ Science Invest AB, priority 1997, dated 2002)

Assays:
SUDHL 1 = assay: growth inhibition of tumour cell lines; details: read-out: half maximum growth inhibitory concentration (IC50), Δ,Δ-enantiomers of (I)-(IV), Δ-enantiomer of (V)
LAMA = assay: growth inhibition of tumour cell lines; details: read-out: half maximum growth inhibitory concentration (IC50), Δ,Δ-enantiomers of (I)-(IV), Δ-enantiomer of (V)
Lung carcinoma HBT182 = assay: growth inhibition of tumour cell lines; details: read-out: half maximum growth inhibitory concentration (IC50), Δ,Δ-enantiomers of (I)-(IV), Δ-enantiomer of (V)
calf thymus DNA = assay: sodium dodecylsulphate-driven dissociation of the DNA complex; type: binding; details: [NaCl]=159 mM
Method: While the association reaction is relatively insensitive to the ionic strength of the solution, the dissociation is much faster at physiological salt concentrations, however, the rate constant is still only 0.008 S^−1 at [NaCl]=159 mM.

DNA = assay: linear dichroism of complex bound to DNA; type: binding; details: 10 mM and 200 mM aqueous NaCl, [Ru]=5 μM, P/Ru=30; negative signals at 380 and 470 nm
Source text: The properties of the Δ,Δ enantiomer of (I) regarding DNA binding was then studied.
The amplitude of the negative signals 380 and 470 nm indicate bis-intercalation of the complex (Lincoln, P. et al. JACS 118 (1996) 2644).

IC50 (SUDHL 1) [µM]	IC50 (LAMA) [µM]	IC50 (Lung carcinoma HBT182) [µM]	DNA binding mode (DNA)	Compound	dissociation rate constant (calf thymus DNA) [S^−1]
14	8	9	bis-intercalation	μ-[N,N′-bis(12-cyano-12,13-dihydro-11H-cyclopentadipyrido[b:3,2-h:2′,3′-j]phenazine-12-carbonyl)-1,4-diaminobutane-N^4,N^5,N′^4,N′^5]-tetra (1,10-phenanthroline N^1,N^10) diruthenium(4+) -tetra-chloride [(I)]	0.008
39	43	38	–	[Cl-].[Cl-].[Ru+2].c1ccc2nc3c4cccnc4c4ncccc4c3nc2c1.c1cnc2c(c1)ccc1cccnc12.c1cnc2c(c1)ccc1cccnc12 [(V), reference compound]	–
14	12	19	–	μ-[N,N′-bis(12-cyano-12,3-dihydro-11H-cyclopentadipyrido[b:3,2-h:2′,3′-j]phenazine-12-carbonyl)-1,2-diaminoethane N^4,N^5,N^4′,N^5′]-tetra(1,10-phenanthroline N^1,N^10)-diruthenium(4+)-tetrachloride [(III)]	–

Compound	IC50 (SUDHL 1) [µM]	IC50 (LAMA) [µM]	IC50 (Lung carcinoma HBT182) [µM]	DNA binding mode (DNA)	dissociation rate constant (calf thymus DNA) [S^−1]
μ-[N,N′-bi (12-cyano-12,13-dihydro-11H-cyclopentadipyrido[b:3,2-h:7′,3′-j]phenazine-12-carbonyl)-1,2-diaminoethane N^4,N^5,N^4′,N^5′]-tetra(2,2′-bipyridine N^1,N^1′)-diruthenium(4+)-tetrachloride [(IV)]	22	16	10	–	–
Δ,Δμ-[N,N′-bis(12-cyano-12,13-dihydro-11H-cyclopentadipyrido[b:3,2-h:2′,3′-j]phenazine-12-carbonyl)-1,4-diaminobutane N^4N^5,N^4,N^5′]-tetra(2,2′-bipyridine N^1,N^1′)diruthenium(4+)-tetrachloride [(II)]	12	9	8	–	–
